Data reported in US11066447B2, “Aureobasidium derivatives and methods of synthesis” (AureoGen Biosciences, Inc., priority 2016, dated 2021).
In brackets after ≈: the same amount, converted by molar mass. Like-named read-outs stand apart in the source and are kept apart here. Numbered stars: 1 amine (or outer) side, 2 acyl side, 3 side chain; on linkers, the order of the positions; unused ones are H or OH. Square brackets hold non-standard residues; d marks the D form. Peptide text beside a SMILES is read from it. ξ: configuration not given here. X13 = CN([C@@H](Cc1cccc(-c2ccc(N3CCN(C(=O)OC(C)(C)C)CC3)nc2)c1)C(=O)[*:2])[*:1]; X21 = CC1CCN(c2cc(-c3cccc(C[C@@H](C(=O)[*:2])N(C)[*:1])c3)ccn2)CC1; X15 = CN([C@@H](Cc1cccc(-c2ccc(N3CCOCC3)nc2)c1)C(=O)[*:2])[*:1]; X24 = CN([C@@H](Cc1cccc(-c2ccnc(N3CCOCC3)c2)c1)C(=O)[*:2])[*:1]; X12 = CN(C)c1cc(-c2cccc(C[C@@H](C(=O)[*:2])N(C)[*:1])c2)ccn1; X14 = CN([C@@H](Cc1cccc(-c2ccc3ncccc3c2)c1)C(=O)[*:2])[*:1]; X17 = CN([C@@H](Cc1cccc(-c2cnc3ccccc3c2)c1)C(=O)[*:2])[*:1]; Hmp(2R,3S) = CC[C@H](C)[C@@H](O)C(=O)O; NMeVal(β-OH) = CN[C@H](C(=O)O)C(C)(C)O; X6 = CCC(C)[C@@H](O[*:1])C(=O)[*:2]; Ile(3ξ) = CCC(C)[C@H](N)C(=O)O; NMeV = CN[C@H](C(=O)O)C(C)C

Assays:
[1] = test system: C. parapsilosis MMX 2323 ATCC 22019; assay: MIC assay (CLSI microdilution); type: cell-based, Candida parapsilosis; settings: read-out: MIC
Outline: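 Broth microdilution MIC testing of Candida parapsilosis ATCC 22019 followed CLSI methods in RPMI-1640, with or without 0.002% Tween-80. Yeast grown 48 hours at 35° C on Sabouraud dextrose agar was suspended to a 0.5 McFarland standard and diluted 1:100 to roughly 0.5-2.5×10^3 CFU/mL. The MIC was the lowest concentration preventing visible growth.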

[2] = test system: C. albicans MMX 2000 ATCC 10231; assay: MIC assay (CLSI microdilution); type: cell-based; settings: Candida albicans, ATCC10231, RPMI plus 0.002% Tween-80; read-out: MIC
[3] = test system: C. neoformans MMX 0634 ATCC 90112; assay: MIC assay (CLSI microdilution); type: cell-based; settings: Cryptococcus neoformans, ATCC90112, RPMI plus 0.002% Tween-80; read-out: MIC
[4] = test system: A. fumigatus MMX 5280 ATCC MYA-3626; assay: MIC/MEC assay (CLSI microdilution); type: cell-based, Aspergillus fumigatus; settings: Aspergillus fumigatus, 48 h
Outline: (§1)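 Aspergillus isolates received approx. 0.2-2.5×10^4 CFU/mL final inoculum in RPMI-1640 plus 0.002% Tween-80, per CLSI microdilution. MMX 5280 was additionally run without Tween-80. Test compounds were serially diluted two-fold in 95% ethanol.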

[5] = test system: A. fumigatus MMX 6782 ATCC 13073; assay: MIC/MEC assay (CLSI microdilution); type: cell-based; settings: Aspergillus fumigatus, ATCC13073, 48 h; for MIC: RPMI plus 0.002% Tween-80, read-out: MIC; for minimal effective concentration: RPMI plus 0.002% Tween-80, read-out: MEC
Outline: as §1

[6] = test system: A. niger MMX 0624 ATCC 16888; assay: MIC/MEC assay (CLSI microdilution); type: cell-based; settings: for minimal effective concentration: RPMI plus 0.002% Tween-80, read-out: MEC
Outline: as §1

A. flavus MMX 5948 = assay: MIC/MEC assay (CLSI microdilution); type: cell-based; settings: Aspergillus flavus, MMX5948, 48 h; for minimal effective concentration: RPMI plus 0.002% Tween-80; for MIC: RPMI plus 0.002% Tween-80, read-out: MIC
Outline: as §1

[7] = test system: A. fumigatus MMX 6781 ATCC MYA-4609; assay: MIC/MEC assay (CLSI microdilution); type: cell-based; settings: Aspergillus fumigatus; for MIC: 48 h, RPMI plus 0.002% Tween-80, read-out: MIC; for minimal effective concentration: RPMI plus 0.002% Tween-80, 48 hr
Outline: as §1

[8] = test system: A. fumigatus from Aureogen; assay: MIC/MEC assay (CLSI microdilution); type: cell-based; settings: Aspergillus fumigatus, 48 h; for minimal effective concentration: RPMI plus 0.002% Tween-80; for MIC: RPMI plus 0.002% Tween-80, read-out: MIC
Outline: as §1

A. fumigatus MMX 5944 = assay: MIC/MEC assay (CLSI microdilution); type: cell-based; settings: Aspergillus fumigatus, MMX5944, 48 h; for minimal effective concentration: RPMI plus 0.002% Tween-80; for MIC: RPMI plus 0.002% Tween-80, read-out: MIC
Outline: as §1

[9] = ATCC22019, RPMI plus 0.002% Tween-80
[10] = RPMI plus 0.002% Tween-80, read-out: MEC
[11] = RPMI plus 0.002% Tween-80, read-out: MIC
[12] = Without Tween-80, read-out: MEC
[13] = Without Tween-80, read-out: MIC
[14] = Aspergillus niger, ATCC16888, 48 h
[15] = Aspergillus niger, ATCC16888, 48 h, RPMI plus 0.002% Tween-80, read-out: MIC
[16] = RPMI plus 0.002% Tween-80, 48 hr

Row | Compound | MIC [1, 9] | MIC ([1]; ATCC22019, Without Tween-80) | MIC [2] | MIC [3] | MIC [4, 11] | MIC [4, 13] | MIC [5] | MIC [6, 15] | MIC (A. flavus MMX 5948) | MIC [7] | MIC [8] | MIC (A. fumigatus MMX 5944) | minimal effective concentration [4, 10] | minimal effective concentration [4, 12] | minimal effective concentration [6, 14] | minimal effective concentration (A. flavus MMX 5948) | minimal effective concentration [7] | minimal effective concentration [8] | minimal effective concentration (A. fumigatus MMX 5944) | minimal effective concentration [5] | further results
1 | CCC(C)[C@@H]1NC(=O)[C@@H]2CCCN2C(=O)[C@H](Cc2cccc(-c3ccc4ncccc4c3)c2)N(C)C(=O)[C@H](Cc2ccccc2)NC(=O)[C@H](C(C)C)N(C)C(=O)[C@@H](C(C)CC)OC(=O)[C@H](C(C)(C)O)N(C)C(=O)[C@H](CC(C)C)NC(=O)[C@H](C(C)C)N(C)C1=O (stereo partly drawn) [Compound 18] (cyclo(F[X14]P[Ile(3ξ)][NMeV]L[NMeVal(β-OH)][X6][NMeV])) | 0.12 µg/mL | 1 µg/mL (≈ 0.814 µM) | 0.03 µg/mL | 0.25 µg/mL | > 64 µg/mL | > 64 µg/mL | > 64 µg/mL | 0.25 µg/mL | 0.5 µg/mL | > 64 µg/mL | > 64 µg/mL | > 64 µg/mL | > 64 µg/mL | > 64 µg/mL | 0.06 µg/mL | 0.25 µg/mL | > 64 µg/mL | > 64 µg/mL | > 64 µg/mL | – | –
2 | CC[C@H](C)[C@@H]1NC(=O)[C@@H]2CCCN2C(=O)[C@H](Cc2cccc(-c3ccnc(N(C)C)c3)c2)N(C)C(=O)[C@H](Cc2ccccc2)NC(=O)[C@H](C(C)C)N(C)C(=O)[C@@H]([C@@H](C)CC)OC(=O)[C@H](C(C)(C)O)N(C)C(=O)[C@H](CC(C)C)NC(=O)[C@H](C(C)C)N(C)C1=O [Compound 22] (cyclo(F[X12]PI[NMeV]L[NMeVal(β-OH)][Hmp(2R,3S)][NMeV])) | 0.06 µg/mL | 1 µg/mL (≈ 0.819 µM) | 0.03 µg/mL | 0.25 µg/mL | > 64 µg/mL | > 64 µg/mL | > 64 µg/mL | 0.5 µg/mL | > 64 µg/mL | > 64 µg/mL | > 64 µg/mL | > 64 µg/mL | > 64 µg/mL | > 64 µg/mL | 0.25 µg/mL | > 64 µg/mL | > 64 µg/mL | > 64 µg/mL | > 64 µg/mL | > 64 µg/mL | –
3 | CC[C@H](C)[C@@H]1NC(=O)[C@@H]2CCCN2C(=O)[C@H](Cc2cccc(-c3ccnc(N4CCC(C)CC4)c3)c2)N(C)C(=O)[C@H](Cc2ccccc2)NC(=O)[C@H](C(C)C)N(C)C(=O)[C@@H]([C@@H](C)CC)OC(=O)[C@H](C(C)(C)O)N(C)C(=O)[C@H](CC(C)C)NC(=O)[C@H](C(C)C)N(C)C1=O [Compound 23] (cyclo(F[X21]PI[NMeV]L[NMeVal(β-OH)][Hmp(2R,3S)][NMeV])) | 0.12 µg/mL | 1 µg/mL (≈ 0.784 µM) | 0.06 µg/mL | 0.25 µg/mL | > 64 µg/mL | > 64 µg/mL | > 64 µg/mL | 0.25 µg/mL | > 64 µg/mL | > 64 µg/mL | > 64 µg/mL | > 64 µg/mL | > 64 µg/mL | > 64 µg/mL | 0.12 µg/mL | > 64 µg/mL | > 64 µg/mL | > 64 µg/mL | > 64 µg/mL | > 64 µg/mL | –
4 | CC[C@H](C)[C@@H]1NC(=O)[C@@H]2CCCN2C(=O)[C@H](Cc2cccc(-c3ccc(N4CCOCC4)nc3)c2)N(C)C(=O)[C@H](Cc2ccccc2)NC(=O)[C@H](C(C)C)N(C)C(=O)[C@@H]([C@@H](C)CC)OC(=O)[C@H](C(C)(C)O)N(C)C(=O)[C@H](CC(C)C)NC(=O)[C@H](C(C)C)N(C)C1=O [Compound 24] (cyclo(F[X15]PI[NMeV]L[NMeVal(β-OH)][Hmp(2R,3S)][NMeV])) | 0.12 µg/mL | 1 µg/mL (≈ 0.791 µM) | 0.03 µg/mL | 0.5 µg/mL | > 64 µg/mL | > 64 µg/mL | > 64 µg/mL | 0.25 µg/mL | 0.5 µg/mL | > 64 µg/mL | > 64 µg/mL | > 64 µg/mL | > 64 µg/mL | > 64 µg/mL | 0.25 µg/mL | 0.25 µg/mL | > 64 µg/mL | > 64 µg/mL | > 64 µg/mL | > 64 µg/mL | –

Continued by falling MIC [1, 9], values first:

Row | MIC [1, 9] | MIC ([1]; ATCC22019, Without Tween-80) | MIC [2] | MIC [3] | MIC [4, 11] | MIC [4, 13] | MIC [5] | MIC [6, 15] | MIC (A. flavus MMX 5948) | MIC [7] | MIC [8] | MIC (A. fumigatus MMX 5944) | Compound | minimal effective concentration [4, 10] | minimal effective concentration [4, 12] | minimal effective concentration [6, 14] | minimal effective concentration (A. flavus MMX 5948) | minimal effective concentration [7] | minimal effective concentration [8] | minimal effective concentration (A. fumigatus MMX 5944) | minimal effective concentration [5] | further results
5 | 1 µg/mL | 2 µg/mL (≈ 1.47 µM) | 0.12 µg/mL | 0.25 µg/mL | > 64 µg/mL | > 64 µg/mL | > 64 µg/mL | – | > 64 µg/mL | > 64 µg/mL | > 64 µg/mL | > 64 µg/mL | CC[C@H](C)[C@@H]1NC(=O)[C@@H]2CCCN2C(=O)[C@H](Cc2cccc(-c3ccc(N4CCN(C(=O)OC(C)(C)C)CC4)nc3)c2)N(C)C(=O)[C@H](Cc2ccccc2)NC(=O)[C@H](C(C)C)N(C)C(=O)[C@@H]([C@@H](C)CC)OC(=O)[C@H](C(C)(C)O)N(C)C(=O)[C@H](CC(C)C)NC(=O)[C@H](C(C)C)N(C)C1=O [Compound 26] (cyclo(F[X13]PI[NMeV]L[NMeVal(β-OH)][Hmp(2R,3S)][NMeV])) | > 64 µg/mL | > 64 µg/mL | – | > 64 µg/mL | > 64 µg/mL | > 64 µg/mL | > 64 µg/mL | > 64 µg/mL | MEC [6, 16]: 2/2 μg/mL; MIC [6, 16]: 2/2 μg/mL
6 | 0.12 µg/mL | 1 µg/mL (≈ 0.814 µM) | 0.015 µg/mL | 0.12 µg/mL | > 64 µg/mL | > 64 µg/mL | > 64 µg/mL | 0.06 µg/mL | 0.5 µg/mL | > 64 µg/mL | > 64 µg/mL | > 64 µg/mL | CC[C@H](C)[C@@H]1NC(=O)[C@@H]2CCCN2C(=O)[C@H](Cc2cccc(-c3cnc4ccccc4c3)c2)N(C)C(=O)[C@H](Cc2ccccc2)NC(=O)[C@H](C(C)C)N(C)C(=O)[C@@H]([C@@H](C)CC)OC(=O)[C@H](C(C)(C)O)N(C)C(=O)[C@H](CC(C)C)NC(=O)[C@H](C(C)C)N(C)C1=O [Compound 27] (cyclo(F[X17]PI[NMeV]L[NMeVal(β-OH)][Hmp(2R,3S)][NMeV])) | > 64 µg/mL | > 64 µg/mL | 0.06 µg/mL | 0.12 µg/mL | > 64 µg/mL | > 64 µg/mL | > 64 µg/mL | > 64 µg/mL | –
7 | 0.06 µg/mL | 1 µg/mL (≈ 0.791 µM) | 0.015 µg/mL | 0.25 µg/mL | > 64 µg/mL | > 64 µg/mL | > 64 µg/mL | 0.25 µg/mL | > 64 µg/mL | > 64 µg/mL | > 64 µg/mL | > 64 µg/mL | CC[C@H](C)[C@@H]1NC(=O)[C@@H]2CCCN2C(=O)[C@H](Cc2cccc(-c3ccnc(N4CCOCC4)c3)c2)N(C)C(=O)[C@H](Cc2ccccc2)NC(=O)[C@H](C(C)C)N(C)C(=O)[C@@H]([C@@H](C)CC)OC(=O)[C@H](C(C)(C)O)N(C)C(=O)[C@H](CC(C)C)NC(=O)[C@H](C(C)C)N(C)C1=O [Compound 21] (cyclo(F[X24]PI[NMeV]L[NMeVal(β-OH)][Hmp(2R,3S)][NMeV])) | > 64 µg/mL | > 64 µg/mL | 0.06 µg/mL | 0.25 µg/mL | > 64 µg/mL | > 64 µg/mL | > 64 µg/mL | > 64 µg/mL | –
